Where “and” joins values, the source holds several entries; their conditions need not be identical. Equal entries are not always repeated. Calls of active or inactive are those of the source.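 Rule for the calls: active = compounds giving half or more protection of infected cells from virus-caused growth loss, again on retest; inactive = the rest.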
System: CEM cells HIV-1 protection, formazan growth assay
Test: NCI AIDS Antiviral Assay
Conditions: for IC50: measured here: growth of uninfected CEM cells
Procedure, shortened: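 CEM (human) cells, HIV-1 infected vs uninfected, 5-point dosing, formazan growth read-out. Retest threshold 50% protection.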

Structure (SMILES)	EC50 [µM]	IC50	outcome
CCOC(C[C@H](O)[C@H]1COC(=S)S1)OCC	135	> 200 µM	
CCOP(=O)(C=C=C(C)C)OCC	> 200	> 200 µM	
COc1cc(N=CN(C)C)c2ncccc2c1			inactive
O=C(O)C1CCC(c2ccc(Cl)cc2Cl)N1 (stereo unspecified)	> 200	> 200 µM	
CC1=C[C@H]2O[C@@H]3[C@H](O)[C@@H](O)[C@](C)(C2(COC(=O)CCl)CC1)[C@@]31CO1 (stereo partly specified)	> 6.92	0.0178 µM	
CC(=O)OC1C(O)C(C)OC(OC2C(OC(=O)C3CCC4C(C3)OC3(CC(OC(=O)/C=C/c5ccccc5)C(C)CO3)C43CO3)OC(C)C(O)C2OC(C)=O)C1O (stereo unspecified)	> 1.55	0.0012 µM	
Cc1ccc(-n2[nH]nc(C#N)c2=O)cc1	> 200	> 200 µM	
Cn1c(=O)c2nc(-c3ccccc3)nnc2n(C)c1=O	> 200	93.3 µM	
Nc1nc(NC(=O)C2=NS(=O)(=O)c3cc(S(N)(=O)=O)c(Cl)cc3N2)n[nH]1	331	380 µM	
Cc1ccc(-c2cc[n+]3c(n2)oc2ccccc23)cc1	> 200	3.63 µM	
Cc1ccc(C)c2c1CC(Cc1ccccc1C(=O)O)C2=O (stereo unspecified)	> 200	158 µM	
O=C(CC(C(=O)c1cccs1)c1ccsc1)c1ccc(Cl)s1 (stereo unspecified)	> 200	97.7 µM	
CCCC(CCN)(CCN)[N+](=O)[O-]	> 200	> 200 µM	
CCc1n[nH]c(=O)n1CC	> 200	> 200 µM	
SCCCSCCSCCCSCCS	> 17.4	> 17.4 µM	
COc1ccc2nc3c([N+](=O)[O-])ccc(NCCCN(C)C)c3c(N)c2c1	> 200	0.195 µM	
COc1cc2occ(-c3ccc(O)c(O)c3)c(=O)c2cc1O	> 200	26.3 µM	
O=C(/C=C/c1ccc2c(c1)OCO2)NCc1ccco1	> 200	117 µM	
COc1cc2c(cc1OCCN1C(=O)c3cccc4cccc(c34)C1=O)N=C[C@@H]1CCCN1C2=O	> 41.7	5.5 µM	
CCCCCCCCCCCCC(CC)CCCCC(=O)O (stereo unspecified)			inactive
COc1ccc2nc3cc(Cl)ccc3c(Nc3ccc(S(=O)(=O)Nc4nccs4)cc3)c2c1	> 9.77	> 9.77 µM	
COc1cccc(CCCCCCCC(=O)O)c1	> 200	> 200 µM	
O/N=C(\CC(O)(C(F)(F)F)C(F)(F)F)c1cccs1	> 200	> 100 µM	

Structure (SMILES)	EC50 [µM]	IC50	outcome
Cc1cnc(SCCN2CCN(C)CC2)nc1-c1cc2ccccc2s1	> 646	1.29 µM	
COc1ccc(C2c3cc4c(cc3OC(NNS(=O)(=O)c3ccc(C)cc3)C2C)OCO4)cc1 (stereo unspecified)	> 200	26.3 µM	
CCCCCCCCCCNCCSSCc1ccc(Cl)cc1			inactive
O=C(NNCC(O)COc1ccccc1)c1ccccc1 (stereo unspecified)	> 200	> 200 µM	
COc1ccc2nc(NC(=O)C(=O)CC(=O)c3ccc([N+](=O)[O-])cc3)sc2c1			inactive
CO/C(N)=C(\C#N)N=Cc1ccco1	> 200	191 µM	
CCCCCCCCCc1cc(=O)c2c(O)cc(O)cc2o1			inactive
CCCCCCCCCCCCCC(=O)O[C@H]1CC[C@H](NC(=O)[C@H](OC)[C@H](O)[C@@H](O)[C@H](O)/C=C/C(C)C)C(=O)NC1	> 2	0.00661 µM	
Cc1cc2c3ccccc3n(C)c2c2c1C(=O)C=CC2=O	> 69.2	5.89 µM	
CCO/C(CCn1[nH]c(=O)c(Cl)c(Cl)c1=O)=N\NC(=O)C(=O)NN	> 7.08	> 7.08 µM	
N#Cc1cc2cc3c4c(c2oc1=O)CCCN4CCC3	> 1.95	> 1.95 µM	
O=S(=O)(c1ccccc1)c1ccccc1	> 204	> 204 µM	
COC(=O)C1ON(c2ccccc2)C2c3ccccc3-c3ccccc3C12 (stereo unspecified)	> 5.62	> 5.62 µM	
CCn1c(-c2ccccc2)cs/c1=N\C(P(=O)(O)O)P(=O)(O)O	> 200	> 200 µM	
CCOC(=O)/C(C[C@H]1OC(C)(C)O[C@@H]1[C@H]1COC(C)(C)O1)=N/O	> 200	> 200 µM	
COc1ccc(-n2sc3ncc([N+](=O)[O-])cc3c2=O)cc1	9.33	> 200 µM	
C=CS(=O)(=O)O	> 200	> 200 µM	
CC(=O)OCCOCN1C(=O)CC(=O)NC1=O	> 200	> 200 µM	
O=C1NC2NC3NC(=O)NC3NC2N1 (stereo unspecified)	> 200	> 200 µM	
Oc1ccc(S)cc1CNC1CCCCC1	> 200	13.2 µM	
COC(=O)[C@]1(C)CCC[C@]2(C)C3=CC(=O)[C@@]4(C(C)C)O[C@H]4[C@]3(O)CC[C@@H]12	> 72.4	> 72.4 µM	
C/C(C=O)=C\c1ccc([N+](=O)[O-])cc1	> 135	75.9 µM	
O=C1Cc2cc3ccccc3nc2-c2ccccc2N1	> 200	> 200 µM	

Structure (SMILES)	EC50 [µM]	IC50	outcome
COC(=O)N1c2c(ccc3c2OCO3)C23C4CN5CCCC(CCC12C(=O)OC)(CC4=O)C53 (stereo unspecified)	> 7.94	> 7.94 µM	
O=C(NCCCNC(=O)c1ccc2cc(O)c(O)cc2c1)c1ccc2cc(O)c(O)cc2c1			inactive
COc1cc(CC(C)N[C@@H](C)c2ccccc2)cc(OC)c1 (stereo partly specified)	> 200	18.6 µM and 64.6 µM	
CCOC(=O)C1(C#N)C(c2ccccc2)CC(O)(c2ccc(Cl)cc2)C(C(=O)c2ccc(Cl)cc2)C1c1ccccc1 (stereo unspecified)	> 12	> 12 µM	
Cc1oc2c(C)c3oc(=O)cc(C)c3cc2c1CN	> 50.1	7.08 µM	
CCOC(=O)C(c1c(O)c2ccccc2oc1=O)c1c(O)c2ccccc2oc1=O	> 617	64.6 µM	
Cc1ccc(NC(=O)CCC/C(CC(=O)c2ccc(Br)cc2)=N/NC(=O)CC#N)cc1	> 102	> 102 µM	
CCn1c(=S)[nH]c2sc3c(c2c1=O)CCCCC3	> 107	21.9 µM	
COc1ccc(C2C(C#N)=C(O)NC(O)=C2C#N)cc1OC	> 120	> 120 µM	
CC(C)(C)C(=O)OC12/C(=N/O)CCCCCC1c1ccccc12 (stereo unspecified)	> 200	37.2 µM	
NCP(=O)(O)OCC(=O)O			inactive
CCCCNC1C2CCC(C)(C1O)C2(C)C (stereo unspecified)	> 200	174 µM	
O=C1OCCCCOC(=O)c2ccccc2SSc2ccccc21	> 200	> 200 µM	
C[Si]1(C)C(c2ccccc2)=CC2C(c3ccccc3)(c3ccccc3)OC21c1ccccc1 (stereo unspecified)	> 4.27	1.17 µM	
CCCCCCCCCCCCCC(=O)OCC1OC(n2cc(C)c(=O)[nH]c2=O)CC1F (stereo unspecified)	0.0437	120 µM	
CCN(C(=O)c1ccc([N+](=O)[O-])cc1)C(c1ccccc1)P(=O)(c1ccccc1)c1ccccc1 (stereo unspecified)			inactive
C[C@@]12C(=O)OC(=O)[C@]1(C)[C@H]1CC[C@@H]2O1	> 347	4.9 µM	
Cc1noc2nccnc12	> 186	> 186 µM	
CCN1CCNc2c3cc(OC)ccc3nc3c([N+](=O)[O-])ccc1c23	> 200	0.11 µM	
Cc1nc2nnc(CCCCCCCCc3nnc4nc(C)[nH]n34)n2[nH]1	135	174 µM	
O=C(NCCCN1CCN(CCCNC(=O)Nc2cc(Cl)ccc2Cl)CC1)Nc1cc(Cl)ccc1Cl	> 0.955	> 0.955 µM	
